From PubChem BioAssay (NCI)
Values joined by “and” are separate entries in the source; they are usually repeats but may differ in a detail not shown here. Equal values may be shown once.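 Each compound was tested at five concentrations against cells in 96-well plates for 48 hours. Here, GI50 denotes the concentration required for 50% inhibition of growth. TGI denotes the concentration required for complete inhibition of growth.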

Columns and labels:
Experiment in all cases: NCI anticancer screen, dose series, 48 h
SN12C renal = system: SN12C renal
PC-3 prostate = system: PC-3 prostate
SNB-75 CNS = system: SNB-75 CNS
EKVX NSCLC = system: EKVX NSCLC
MCF7 breast = system: MCF7 breast
HOP-62 NSCLC = system: HOP-62 NSCLC
OVCAR-3 ovarian = system: OVCAR-3 ovarian
CAKI-1 renal = system: CAKI-1 renal
NCI-H23 lung = system: NCI-H23 lung
MOLT-4 leukemia = system: MOLT-4 leukemia

SMILES	GI50 (SN12C renal)	TGI (SN12C renal)	GI50 (PC-3 prostate)	TGI (PC-3 prostate)	GI50 (SNB-75 CNS)	TGI (SNB-75 CNS)	GI50 (EKVX NSCLC)	TGI (EKVX NSCLC)	GI50 (MCF7 breast)	TGI (MCF7 breast)	GI50 (HOP-62 NSCLC)	TGI (HOP-62 NSCLC)	GI50 (OVCAR-3 ovarian)	TGI (OVCAR-3 ovarian)	GI50 (CAKI-1 renal)	TGI (CAKI-1 renal)	GI50 (NCI-H23 lung)	TGI (NCI-H23 lung)	GI50 (MOLT-4 leukemia)	TGI (MOLT-4 leukemia)
S=C(NCc1ccc2c(c1)OCO2)N1CCN(c2ncnc3c2oc2ccccc23)CC1	> 100 µM	> 100 µM	6.88 µM	> 100 µM	> 100 µM	> 100 µM	3.5 µM	> 100 µM	4.83 µM	> 100 µM	> 100 µM	> 100 µM	25.2 µM	> 100 µM	5.93 µM	> 100 µM	5.34 µM	> 100 µM	3.95 µM	> 100 µM
CC1(C)[C@H](O)[C@H](F)C[C@@]2(C)Oc3ccc(C(=O)Nc4ccc5c(c4)NC(=O)C54CCN(CCCCC#N)CC4)cc3C[C@H]12	11.7 µM	42.4 µM	0.0225 µM	2.84 µM and 5.24 µM	0.00679 µM	6.38 µM and 2.2 µM	4.01 µM and 4.25 µM	22.1 µM	0.00995 µM	9.63 µM and 8.28 µM	1.28 µM and 1.13 µM	5.61 µM	3.82 µM and 12 µM	30.4 µM		38.5 µM	2.44 µM and 2.29 µM	17.8 µM	0.00568 µM	1.09 µM and 1.63 µM
c1ccc(CN2COc3c(ccc4c5c(ccc34)CN(Cc3ccccc3)CO5)C2)cc1		> 100 µM		> 100 µM		> 100 µM		> 100 µM		> 100 µM		> 100 µM		> 100 µM		> 100 µM		> 100 µM		> 100 µM
Cc1ccc(Cl)cc1-n1c(C)nc2c(cnn2-c2ccnc3c(C(F)(F)F)cccc23)c1=O	> 100 µM	> 100 µM	> 100 µM	> 100 µM	> 100 µM	> 100 µM	> 100 µM	> 100 µM	> 100 µM	> 100 µM	> 100 µM	> 100 µM	> 100 µM	> 100 µM	> 100 µM	> 100 µM	> 100 µM	> 100 µM	> 100 µM	> 100 µM
O=[N+]([O-])c1cc(Cc2cc([N+](=O)[O-])c3cccnc3c2O)c(O)c2ncccc12		> 65.3 µM		23.4 µM		24.9 µM		61.9 µM		29.6 µM		42.4 µM		6.71 µM		41.3 µM		> 100 µM		> 30.4 µM
Cc1ccc(-n2c(-c3cc4c([nH]c5ccccc54)c(-c4cccc(O)c4)n3)n[nH]c2=S)cc1	0.936 µM	6.91 µM	2.48 µM	42.4 µM	1.34 µM	6.17 µM	1.95 µM	11.1 µM	1.8 µM	10.5 µM	1.24 µM	4.87 µM	0.399 µM	1.86 µM	1.73 µM	4.9 µM	1.67 µM	9.84 µM	0.908 µM	4.76 µM
CCOC(=O)C(Cc1ccc(N(CCCl)CCCl)cc1)NC(=O)C(Cc1ccccc1)NC(C)=O (centres undefined)		> 0.296 µM		> 0.374 µM		> 1 µM		> 0.538 µM		0.496 µM		> 0.431 µM		0.361 µM		0.419 µM		> 0.304 µM		0.201 µM
N#C/C(=C\c1cc2ccc(N3CCC3)cc2oc1=O)C(=O)N(CC(=O)O)CC(=O)O	> 100 µM	> 100 µM	> 100 µM	> 100 µM	> 100 µM	> 100 µM	> 100 µM	> 100 µM	> 100 µM	> 100 µM	> 100 µM	> 100 µM	> 100 µM	> 100 µM	> 100 µM	> 100 µM	> 100 µM	> 100 µM	> 100 µM	> 100 µM
O=C(c1cc(Cc2n[nH]c(=O)c3ccccc23)ccc1F)N1CCN(C(=O)C2CC2)CC1	> 100 µM	> 100 µM	43.1 µM and > 71.4 µM	> 100 µM	14.9 µM and 18 µM	> 100 µM	18 µM and 77.7 µM	> 100 µM	47.4 µM and 34.2 µM	> 100 µM	43.2 µM	> 100 µM	32.8 µM and > 77.2 µM	> 100 µM	16.5 µM and 54.5 µM	48.1 µM and > 100 µM	23.6 µM and 40.3 µM	> 100 µM	46.7 µM and 22.4 µM	> 100 µM
O=C1/C(=C/c2ccccc2O)N=C(c2ccccc2)N1c1cc(C(F)(F)F)ccc1Cl	53.6 µM	> 100 µM	42.7 µM	> 100 µM	18.1 µM	37.7 µM	38.3 µM	> 100 µM	3.04 µM	> 100 µM	15.9 µM	30.4 µM	54.2 µM	> 100 µM	14.3 µM	38.5 µM	80.1 µM	> 100 µM	> 100 µM	> 100 µM
COCCOCCOCCOCCOC(=O)OC[n+]1ccc(NC(=NCCCCCCOc2ccc(Cl)cc2)NC#N)cc1	< 0.01 µM	15.7 µM	< 0.01 µM	14.2 µM	14.1 µM	27.9 µM	3.93 µM	14.9 µM	0.873 µM	17.4 µM	9.58 µM	24.1 µM	4.69 µM	19.3 µM	3.3 µM	20.5 µM	4.23 µM	23.1 µM	1.95 µM	19.5 µM
COc1cc(C(=O)/C=C/c2c(C(F)(F)F)nc3ccccn23)cc(OC)c1OC	2.09 µM	6.49 µM	3.8 µM	32.8 µM	1.76 µM	3.44 µM	2.37 µM	6.78 µM	1.44 µM	6.41 µM	2.97 µM	8.53 µM	1.83 µM	3.61 µM	1.82 µM	4.44 µM	1.51 µM	4.01 µM	3.73 µM	> 100 µM
